Data on two molecules can be found in ChEMBL document CHEMBL4373731, “Antiprotozoal alkaloid principles of the plant family Amaryllidaceae” (Bioorg Med Chem Lett, 2019).

SMILES strings stand for the structures. ≈ marks a conversion by molar mass, not a printed value.

Data set [1] concerns Trypanosoma cruzi. Put plainly: Antitrypanosomal activity against Trypanosoma cruzi. It counts as functional, organism-based.
In data set [2] the test system is Leishmania donovani. Put plainly: […] activity against Leishmania donovani. The format is functional, organism-based.
The test system of data set [3] is Trypanosoma brucei rhodesiense. Put plainly: Antitrypanosomal activity against Trypanosoma brucei rhodesiense. It counts as functional, organism-based.
Data set [4] relates to L6. The data set is described as follows: Cytotoxicity against rat L6 cells assessed as reduction in cell viability. The format is cell-based.
For data set [5], the system named is KB. The data set is described as follows: Cytotoxicity against human KB cells assessed as reduction in cell viability. The format is cell-based.
Data set [6] can be described thus: Selectivity index, ratio of IC50 for Trypanosoma brucei rhodesiense to IC50 for human KB cells. It counts as toxicity. As to conditions: read-out: Ratio IC50.
In data set [7] the test system is Trypanosoma brucei rhodesiense. Put plainly: Antitrypanosomal activity against Trypanosoma brucei rhodesiense after 48 hrs by [3H]-hypoxanthine incorporation assay. The format is functional, organism-based.
Data set [8] has as its system Trypanosoma cruzi. The data set is described as follows: Antitrypanosomal activity against Trypanosoma cruzi after 48 hrs by [3H]-hypoxanthine incorporation assay. The format is functional, organism-based.
Data set [9] has as its system Leishmania donovani. Put plainly: […] activity against Leishmania donovani after 48 hrs by [3H]-hypoxanthine incorporation assay. The format is functional, organism-based.

Usually IC50 stands for the concentration that inhibits the measured activity by half.

As to `COc1cc2c(cc1OC)[C@@H]1[C@H](OC(C)=O)[C@@H](O)C[C@H]3CC[N+]([O-])(C2)[C@H]31` (some centres not stated), the IC50 in data set [1] was greater than 90 µg/mL; in data set [2], greater than 90 µg/mL; in data set [3], 73.4 µg/mL (≈ 202 µM); in [4] it was greater than 90 µg/mL; in data set [5], greater than 50 µg/mL. Moreover, in data set [6], the selectivity ratio is greater than 16.
Regarding `O=C(Cn1ccnc1[N+](=O)[O-])NCc1ccccc1` [BENZNIDAZOLE], the IC50 in data set [1] amounted to 0.36 µg/mL (≈ 1.38 µM); in [7], 0.001 µg/mL (≈ 0.00384 µM); in [8] it was 5.42 µg/mL (≈ 20.8 µM); in [9], 33.3 µg/mL (≈ 128 µM); in data set [2], 0.2 µg/mL (≈ 0.768 µM); in data set [3], 0.04 µg/mL (≈ 0.154 µM).
